biological target: T1, human MCH-1R (Homo sapiens, UniProt Q99705); experiment: MCH binding inhibition test; details: not given
T1 construct: expressed in transfected cells; host or cells: CHO-K1 (American Type Culture Collection), membrane samples
Text: Pharmacological Test Example 1
(MCH Binding Inhibition Test)
A human MCH-1R encoding cDNA sequence [FEBS Letters, Vol. 398, p. 253 (1996); Biochimica et Biophisica Acta, Vol. 1401, p. 216 (1998)] was cloned to plasmid vector pEF/mic/cyto (Invitrogen Corporation). The obtained expression vector was transfected to a host cell CHO-K1 (American Type Culture Collection) using lipofectamine plus reagent (Life Technology Inc.) to provide MCH-1R expression cells.
Membrane samples prepared from the MCH-1R expression cells were incubated with each test compound and 50 pM of [^125I]MCH (NEN Co.), in an assay buffer (50 mM Tris buffer comprising 10 mM magnesium chloride, 2 mM ethylenediamine tetraacetate, 0.01% bacitracin and 0.2% bovine serum albumin; pH 7.4) at 25° C. for an hour, followed by filtration through Glass Filter GF/C (Wattman Co.). After washing the glass filter with 50 mM Tris buffer (pH7.4) comprising 10 mM magnesium chloride, 2 mM ethylenediamine tetraacetate and 0.04% Tween-20, radiative activity on the glass filter was measured. Non-specific binding was measured in the presence of 1 μM human MCH and 50% inhibition concentration (IC50 value) of each test compound to specific [^125] MCH binding was determined.

T1 sequence (Q99705 whole entry): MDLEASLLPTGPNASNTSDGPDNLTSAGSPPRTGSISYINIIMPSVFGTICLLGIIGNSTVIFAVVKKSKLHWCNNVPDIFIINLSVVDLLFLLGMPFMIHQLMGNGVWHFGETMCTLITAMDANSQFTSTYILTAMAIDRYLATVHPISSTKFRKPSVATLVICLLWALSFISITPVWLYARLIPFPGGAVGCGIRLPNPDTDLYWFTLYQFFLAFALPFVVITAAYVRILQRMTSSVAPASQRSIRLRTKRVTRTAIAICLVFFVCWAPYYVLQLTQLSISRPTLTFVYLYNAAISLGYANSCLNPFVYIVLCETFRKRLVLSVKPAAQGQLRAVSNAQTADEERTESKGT

| Structure (SMILES) | IC50 [nM] |
| --- | --- |
| CN(CCCN1CCC2(CC1)OCc1cc(F)ccc12)C(=O)C(c1ccc(F)c(F)c1)N1CCCC1=O (stereo not drawn) [Example 33, 2-(3,4-Difluorophenyl)-N-methyl-2-(2-oxo-1-pyrrolidinyl-N-[3-spiro[5-fluoroisobenzofuran-1(3H), 4′-piperidin]-1-yl)-propyl]acetamide] | 1.4 |
| CN(CCCN1CCC2(CC1)OCc1cc(F)ncc12)C(=O)C(c1ccc(F)nc1)c1ccc(F)nc1 [Example 48, 2,2-Bis(6-fluoro-3-pyridinyl)-N-methyl-N-[3-(spiro[5-fluoro-6-azaisobenzofuran-1(3H), 4′-piperidin]-1-yl)propyl]-acetamide] | 6.5 |
| O=C(NCCCN1CCC2(CC1)OCc1cc(F)ccc12)C(c1ccc(F)c(F)c1)N1CCCC1=O (stereo not drawn) [Example 6, 2-(3,4-Difluorophenyl)-2-(2-oxo-1-pyrrolidinyl)-N-[3-(spiro[5-fluoroisobenzofuran-1(3H), 4′-piperidin]-1-yl)propyl]-acetamide] | 5 |
| CN(CCCN1CCC2(CC1)OCc1ccccc12)C(=O)C(c1ccc(F)c(F)c1)n1ncnn1 (stereo not drawn) [Example 28, 2-(3,4-Difluorophenyl)-N-methyl-2-(2H-1,2,3,4-tetrazol-2-yl)-N-[3-(spiro[isobenzofuran-1(3H), 4′-piperidin]-1-yl)propyl]acetamide] | 1.9 |
| Cc1nccn1C(C(=O)N(C)CCCN1CCC2(CC1)OCc1ccc(F)cc12)c1ccc(F)c(F)c1 (stereo not drawn) [Example 43, 2-(3,4-Difluorophenyl)-N-methyl-2-(2-methyl-1H-imidazol-1-yl)-N-[3-(spiro[6-fluoroisobenzofuran-1(3H), 4′-piperidin]-1-yl)-propyl]acetamide] | 0.2 |

same assay, conditions: inhibition of specific [125I]MCH (50 pM) binding; membranes of MCH-1R expressing CHO-K1 cells; 25° C., one hour, pH 7.4; read-out: IC50

| Structure (SMILES) | IC50 [nM] |
| --- | --- |
| CCC(=O)Nc1cccc(C2CCN(CCCN(C)C(=O)C(C)(C)c3ccc(F)c(F)c3)CC2)c1 [Example 60, 2-(3,4-Difluorophenyl)-2,2-dimethyl-N-methyl-N-[3-(4-(3-(propionylamino)phenyl)-1-piperidinyl)propyl]acetamide] | 2.5 |
| CN(CCCN1CCC2(CC1)OCc1ccccc12)C(=O)C(c1ccc(Cl)cc1)n1cccc1 (stereo not drawn) [Example 12, 2-(4-Chlorophenyl)-N-methyl-2-(1H-pyrrol-1-yl)-N-[3-(spiro-[isobenzofuran-1(3H), 4′-piperidin]-1-yl)propyl]acetamide] | 1 |
| CCN(CCCN1CCC2(CC1)OCc1ccccc12)C(=O)C(c1ccc(F)c(F)c1)N1CCCC1=O (stereo not drawn) [Example 67, 2-(3,4-Difluorophenyl)-N-ethyl-2-(2-oxo-1-pyrrolidinyl)-N-[3-(spiro[isobenzofuran-1(3H), 4′-piperidin]-1-yl)propyl]acetamide] | 1 |
| CN(CCCN1CCC2(CC1)OCc1ccccc12)C(=O)C(c1ccc(F)c(F)c1)n1ccnn1 (stereo not drawn) [Example 18, 2-(3,4-Difluorophenyl)-N-methyl-2-(1H-1,2,3-triazol-1-yl)-N-[3-(spiro[isobenzofuran-1(3H), 4′-piperidin]-1-yl)propyl]acetamide] | 1.9 |

— patent US7727998B2, “Melanin-concentrating hormone receptor antagonists containing piperidine derivatives as the active ingredient” (Banyu Pharmaceutical Co., Ltd., priority 2003, dated 2010)
